PubChem BioAssay AID342 (DTP/NCI, 2004)
“And” between values parts separate entries of the source, which are not always exact repeats. Equal values may be shown once.

System: Swiss mice, Sarcoma 180 sc, mean tumor weight T/C
Assay: NCI In Vivo Anticancer Drug Screen. Data for tumor model Sarcoma 180 (subcutaneous) in Swiss mice
Details: endpoint: mean tumor weight, higher = larger tumour
Outline: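 Tumor-bearing mice, transplantable tumor; readout survival or tumor size; result = T/C, treated vs vehicle control.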

[1] = dose: 16.0 mg/kg/injection, schedule: Q01DX007 (sc), vehicle: steriod suspending solution
[2] = dose: 24.0 mg/kg/injection, schedule: Q01DX007 (sc), vehicle: steriod suspending solution
[3] = dose: 55.0 mg/kg/injection, schedule: Q01DX007 (ip), vehicle: carboxymethylcellulose (CMC)

O=c1[nH]c(=O)n(C2CC(O)C(CO)O2)cc1F (configuration not stated) was tested, and the T/C (dose: 2.0 mg/kg/injection, schedule: Q01DX007 (ip), vehicle: carboxymethylcellulose (CMC)) was 97 % of control, the T/C (dose: 4.0 mg/kg/injection, schedule: Q01DX007 (ip), vehicle: carboxymethylcellulose (CMC)) was 108 % of control and the T/C (dose: 8.0 mg/kg/injection, schedule: Q01DX007 (ip), vehicle: carboxymethylcellulose (CMC)) was 97 % of control. The T/C (dose: 10.0 mg/kg/injection, schedule: Q#A X014 (ip), vehicle: carboxymethylcellulose (CMC)) was 27 % of control, the T/C (dose: 12.5 mg/kg/injection, schedule: Q#A X014 (ip), vehicle: carboxymethylcellulose (CMC)) was 28 % of control and the T/C (dose: 16.0 mg/kg/injection, schedule: Q01DX007 (ip), vehicle: carboxymethylcellulose (CMC)) was 94 % of control. For the same compound, the T/C (dose: 20.0 mg/kg/injection, schedule: Q01DX007 (ip), vehicle: saline) was 119 % of control, the T/C (dose: 20.0 mg/kg/injection, schedule: Q#A X014 (ip), vehicle: carboxymethylcellulose (CMC)) was 14 % of control and the T/C (dose: 25.0 mg/kg/injection, schedule: Q#A X014 (ip), vehicle: carboxymethylcellulose (CMC)) was 10 % of control. For the same compound, the T/C (dose: 40.0 mg/kg/injection, schedule: Q01DX007 (ip), vehicle: saline) was 86 % of control, the T/C (dose: 40.0 mg/kg/injection, schedule: Q#A X014 (ip), vehicle: carboxymethylcellulose (CMC)) was 4 % of control and the T/C (dose: 80.0 mg/kg/injection, schedule: Q01DX007 (ip), vehicle: carboxymethylcellulose (CMC)) was 29 % of control. For the same compound, the T/C (dose: 80.0 mg/kg/injection, schedule: Q01DX007 (ip), vehicle: saline) was 109 % of control, the T/C (dose: 80.0 mg/kg/injection, schedule: Q#A X014 (ip), vehicle: carboxymethylcellulose (CMC)) was 15 % of control and the T/C (dose: 106.6 mg/kg/injection, schedule: Q01DX007 (ip), vehicle: carboxymethylcellulose (CMC)) was 7 % of control. The T/C (dose: 128.0 mg/kg/injection, schedule: Q01DX007 (ip), vehicle: carboxymethylcellulose (CMC)) was 8 % of control, the T/C (dose: 160.0 mg/kg/injection, schedule: Q01DX007 (ip), vehicle: carboxymethylcellulose (CMC)) was 5 % of control and the T/C (dose: 160.0 mg/kg/injection, schedule: Q01DX007 (ip), vehicle: saline) was 56 % of control.

With Cc1[nH]ccc2c(C)c3nc4ccccc4c3cc12 the T/C (dose: 25.0 mg/kg/injection, schedule: Q01DX007 (ip), vehicle: water) was 171 % of control, the T/C (dose: 50.0 mg/kg/injection, schedule: Q01DX007 (ip), vehicle: water) was 122 % of control and the T/C (dose: 100.0 mg/kg/injection, schedule: Q01DX007 (ip), vehicle: water) was 116 % of control. For the same compound, the T/C (dose: 200.0 mg/kg/injection, schedule: Q01DX007 (ip), vehicle: water) was 42 % of control.

In the case of C[C@@H]1C[C@H]2[C@@H]3CCC4=CC(=O)C=C[C@]4(C)[C@@]3(F)[C@@H](O)C[C@]2(C)[C@@]1(O)C(=O)CO, the T/C (dose: 7.0 mg/kg/injection, schedule: Q01DX007 (sc), vehicle: steriod suspending solution) is reported as 50 % of control and 56 % of control, the T/C (dose: 11.0 mg/kg/injection, schedule: Q01DX007 (sc), vehicle: steriod suspending solution) is reported as 38 % of control and 39 % of control and the T/C [1] is reported as 35 % of control and 36 % of control and 47 % of control. For the same compound, the T/C [2] was 30 % of control and 35 % of control and 40 % of control.

For CN(C)[C@@H]1C(=O)C(C(N)=O)=C(O)[C@@]2(O)C(=O)C3=C(O)c4c(O)cccc4C[C@H]3C[C@@H]12, the T/C (dose: 20.0 mg/kg/injection, schedule: Q#A X014 (ip), vehicle: other) was 64 % of control, the T/C (dose: 30.0 mg/kg/injection, schedule: Q#A X014 (ip), vehicle: other) was 61 % of control and the T/C (dose: 45.0 mg/kg/injection, schedule: Q#A X014 (ip), vehicle: other) was 31 % of control.

For Nc1ccc(C(=O)O)c(O)c1, the T/C (dose: 95.87 mg/kg/injection, schedule: Q01DX007 (ip), vehicle: carboxymethylcellulose (CMC)) was 108 % of control and 121 % of control, the T/C (dose: 306.8 mg/kg/injection, schedule: Q01DX007 (ip), vehicle: carboxymethylcellulose (CMC)) was 44 % of control and the T/C (dose: 511.33 mg/kg/injection, schedule: Q01DX007 (ip), vehicle: carboxymethylcellulose (CMC)) was 57 % of control.

With CC1=C(CO)C(=O)O[C@@H]([C@@H](C)[C@H]2CC[C@H]3[C@@H]4C[C@H]5O[C@]56[C@@H](O)C=CC(=O)[C@]6(C)[C@H]4CC[C@]23C)C1 the T/C (dose: 10.0 mg/kg/injection, schedule: Q01DX007 (ip), vehicle: carboxymethylcellulose (CMC)) was 64 % of control, the T/C (dose: 13.3 mg/kg/injection, schedule: Q01DX007 (ip), vehicle: saline) was 97 % of control and the T/C (dose: 13.7 mg/kg/injection, schedule: Q01DX007 (ip), vehicle: saline) was 85 % of control. For the same compound, the T/C (dose: 16.0 mg/kg/injection, schedule: Q01DX007 (ip), vehicle: saline) was 77 % of control, the T/C (dose: 16.0 mg/kg/injection, schedule: Q01DX007 (sc), vehicle: olive oil, sesame oil, peanut oil) was 90 % of control and the T/C [1] was 93 % of control. For the same compound, the T/C (dose: 18.0 mg/kg/injection, schedule: Q01DX007 (ip), vehicle: saline) was 60 % of control, the T/C (dose: 24.0 mg/kg/injection, schedule: Q01DX007 (ip), vehicle: saline) was 54 % of control and the T/C (dose: 24.0 mg/kg/injection, schedule: Q01DX007 (sc), vehicle: olive oil, sesame oil, peanut oil) was 109 % of control. For the same compound, the T/C [2] was 66 % of control, the T/C (dose: 33.0 mg/kg/injection, schedule: Q01DX007 (ip), vehicle: saline) was 25 % of control and the T/C (dose: 36.0 mg/kg/injection, schedule: Q01DX007 (sc), vehicle: olive oil, sesame oil, peanut oil) was 77 % of control. The T/C (dose: 36.0 mg/kg/injection, schedule: Q01DX007 (sc), vehicle: steriod suspending solution) was 79 % of control.

For CO[C@H]1C[C@H](O[C@H]2CC[C@]3(C=O)[C@H]4CC[C@]5(C)[C@@H](C6=CC(=O)OC6)CC[C@]5(O)[C@@H]4CC[C@]3(O)C2)O[C@H](C)[C@H]1O, the T/C (dose: 2.5 mg/kg/injection, schedule: Q01DX007 (sc), vehicle: saline) was 86 % of control and the T/C (dose: 5.0 mg/kg/injection, schedule: Q01DX007 (sc), vehicle: saline) was 62 % of control.

In the case of CN1Cc2c(ccc3c2OCO3)[C@@H]2[C@H](O)Cc3cc4c(cc3[C@@H]21)OCO4, the T/C (dose: 150.0 mg/kg/injection, schedule: Q01DX007 (ip), vehicle: carboxymethylcellulose (CMC)) is reported as 93 % of control.

In the case of C=CCNc1ccc(C)cc1, the T/C (dose: 30.0 mg/kg/injection, schedule: Q01DX007 (ip), vehicle: carboxymethylcellulose (CMC)) is reported as 72 % of control and 88 % of control, the T/C [3] is reported as 86 % of control and the T/C (dose: 69.0 mg/kg/injection, schedule: Q01DX007 (ip), vehicle: carboxymethylcellulose (CMC)) is reported as 109 % of control. The T/C (dose: 83.0 mg/kg/injection, schedule: Q01DX007 (ip), vehicle: carboxymethylcellulose (CMC)) was 76 % of control, the T/C (dose: 105.0 mg/kg/injection, schedule: Q01DX007 (ip), vehicle: carboxymethylcellulose (CMC)) was 76 % of control and 83 % of control and the T/C (dose: 125.0 mg/kg/injection, schedule: Q01DX007 (ip), vehicle: carboxymethylcellulose (CMC)) was 26 % of control. For the same compound, the T/C (dose: 157.0 mg/kg/injection, schedule: Q01DX007 (ip), vehicle: carboxymethylcellulose (CMC)) was 94 % of control.

In the case of O=C(c1ccccc1)C(C(=O)c1ccccc1)C(=O)c1ccccc1.O=C(c1ccccc1)C(C(=O)c1ccccc1)C(=O)c1ccccc1.[Cu], the T/C [3] is reported as 68 % of control and 70 % of control, the T/C (dose: 85.0 mg/kg/injection, schedule: Q01DX007 (ip), vehicle: carboxymethylcellulose (CMC)) is reported as 63 % of control and 84 % of control and the T/C (dose: 190.0 mg/kg/injection, schedule: Q01DX007 (ip), vehicle: carboxymethylcellulose (CMC)) is reported as 60 % of control and 64 % of control. For the same compound, the T/C (dose: 284.0 mg/kg/injection, schedule: Q01DX007 (ip), vehicle: carboxymethylcellulose (CMC)) was 66 % of control.

C1OC1C1CO1 (configuration not stated) was tested, and the T/C (dose: 4.5 mg/kg/injection, schedule: Q01DX007 (ip), vehicle: carboxymethylcellulose (CMC)) was 68 % of control, the T/C (dose: 4.63 mg/kg/injection, schedule: Q01DX007 (ip), vehicle: carboxymethylcellulose (CMC)) was 99 % of control and the T/C (dose: 9.0 mg/kg/injection, schedule: Q01DX007 (ip), vehicle: carboxymethylcellulose (CMC)) was 97 % of control. For the same compound, the T/C (dose: 9.25 mg/kg/injection, schedule: Q01DX007 (ip), vehicle: carboxymethylcellulose (CMC)) was 74 % of control, the T/C (dose: 13.76 mg/kg/injection, schedule: Q01DX007 (ip), vehicle: carboxymethylcellulose (CMC)) was 80 % of control and the T/C (dose: 17.2 mg/kg/injection, schedule: Q01DX007 (ip), vehicle: carboxymethylcellulose (CMC)) was 107 % of control. For the same compound, the T/C (dose: 18.0 mg/kg/injection, schedule: Q01DX007 (ip), vehicle: carboxymethylcellulose (CMC)) was 53 % of control, the T/C (dose: 18.5 mg/kg/injection, schedule: Q01DX007 (ip), vehicle: carboxymethylcellulose (CMC)) was 71 % of control and the T/C (dose: 22.93 mg/kg/injection, schedule: Q01DX007 (ip), vehicle: carboxymethylcellulose (CMC)) was 82 % of control. The T/C (dose: 34.4 mg/kg/injection, schedule: Q01DX007 (ip), vehicle: carboxymethylcellulose (CMC)) was 80 % of control.

For C[C@]1(O)CC[C@H]2[C@@H]3CCc4cc(O)ccc4[C@H]3CC[C@@]21C, the T/C (dose: 0.5 mg/kg/injection, schedule: Q#A X014 (sc), vehicle: steriod suspending solution) was 115 % of control, the T/C (dose: 5.0 mg/kg/injection, schedule: Q#A X014 (sc), vehicle: steriod suspending solution) was 103 % of control and the T/C (dose: 50.0 mg/kg/injection, schedule: Q#A X014 (sc), vehicle: steriod suspending solution) was 74 % of control.
